In test [1] the target is T1, EGFR with insertion SVD between D770 and N771 (mutEGFR D770_N771insSVD) (Homo sapiens, UniProt P00533, DUP768-770).
T1 construct: amino acids R669 to A1210; made in house; host or cells: Sf9 insect cells (baculovirus)
In words: Exon20-Mutant-EGFR(D770_N771insSVD) kinase assay (TR-FRET). The class given is biochemical. Conditions: 2 mM ATP, Table 2. On the technique in general: Time-resolved FRET reads energy transfer from a long-lived donor to a nearby acceptor.

The next test deals with T2, Bub1 (Homo sapiens, UniProt O43683).
T2 construct: catalytic domain of human Bub1 (amino acids 704-1085); His6 (N); made in house; host or cells: insect cells (Hi5)
In words: Bub1 high ATP kinase assay (TR-FRET). The class given is biochemical. Conditions: Bub1 high ATP (2 mM) IC50, TR-FRET, 2 mM ATP; Table 3. From the text: Bub1 high ATP Kinase Assay
Bub1-inhibitory activity of compounds of the present invention at a high ATP concentration was quantified employing the Bub1 TR-FRET high ATP kinase assay as described in the following paragraphs.
N-terminally His6-tagged recombinant catalytic domain of human Bub1 (amino acids 704-1085), expressed in insect cells (Hi5) and purified by Ni-NTA affinity chromatography and subsequent size exclusion chromatography, was used as enzyme. As substrate for the kinase reaction the biotinylated peptide biotin-Ahx-[…] (C-terminus in amid form) was used which can be purchased e.g. form the company Biosyntan (Berlin, Germany).
Then the kinase reaction was started by the addition of 2 μl of a solution of Bub1 in assay buffer and the resulting mixture was incubated for a reaction time of 60 min at 22° C. The concentration of Bub1 was adjusted depending of the activity of the enzyme lot and was chosen appropriate to have the assay in the linear range, a typical concentration is about 200 ng/ml. The reaction was stopped by the addition of 3 μl of a solution of TR-FRET detection reagents (0.167 μM streptavidine-XL665 [Cisbio Bioassays, Codolet, France] and 1.67 nM anti-phosho-Serine antibody [Merck Millipore, cat. #35-002] and 0.67 nM LANCE EU-W1024 labeled anti-mouse IgG antibody [Perkin-Elmer, product no. AD0077, as an alternative a Terbium-cryptate-labeled anti-mouse IgG antibody from Cisbio Bioassays can be used]) in an aqueous EDTA-solution (83.3 mM EDTA, 0.2% (w/v) bovine serum albumin in 100 mM HEPES pH 7.5).
The resulting mixture was incubated 1 h at 22° C. to allow the formation of complex between the phosphorylated biotinylated peptide and the detection reagents. Subsequently the amount of phosphorylated substrate was evaluated by measurement of the resonance energy transfer from the Eu-chelate to the streptavidine-XL. Therefore, the fluorescence emissions at 620 nm and 665 nm after excitation at 350 nm was measured in a TR-FRET reader, e.g. a Pherastar or Pherastar FS (both from BMG Labtechnologies, Offenburg, Germany) or a Viewlux (Perkin-Elmer). The ratio of the emissions at 665 nm and at 622 nm was taken as the measure for the amount of phosphorylated substrate.

Test [2] has as its target Ba/F3-EGFR-D770_N771insSVD cells (Homo sapiens, UniProt P00533, DUP768-770, cells depend on it). Nature of the test: Ba/F3 cell survival assay, EGFR D770_N771insSVD. The class given is cell-based. Conditions: Cell Titer-Glo, 48 h, without IL-3; Table 4; read-out: BA/F3 (insSVD) IC50. On the technique in general: In ATP-based viability assays light output follows the ATP content of the culture.

The next test concerns the target Ba/F3-EGFR-WT cells (Homo sapiens, UniProt P00533). Nature of the test: Ba/F3 cell survival assay, wild type EGFR. Format: cell-based. Conditions: Cell Titer-Glo, 48 h, with 10 ng/mL EGF; Table 4; read-out: BA/F3 (wild type) IC50.

SMILES strings stand for the structures. Where “and” joins values, the source holds several entries; their conditions need not be identical. Equal values may be shown once. Bounds are passed on as bounds.

By IC50 is commonly meant the midpoint of a concentration-inhibition curve. A higher IC50 goes with weaker potency.

Ba/F3-EGFR-WT cells, sequence (P00533 whole entry, looked up, change not shown): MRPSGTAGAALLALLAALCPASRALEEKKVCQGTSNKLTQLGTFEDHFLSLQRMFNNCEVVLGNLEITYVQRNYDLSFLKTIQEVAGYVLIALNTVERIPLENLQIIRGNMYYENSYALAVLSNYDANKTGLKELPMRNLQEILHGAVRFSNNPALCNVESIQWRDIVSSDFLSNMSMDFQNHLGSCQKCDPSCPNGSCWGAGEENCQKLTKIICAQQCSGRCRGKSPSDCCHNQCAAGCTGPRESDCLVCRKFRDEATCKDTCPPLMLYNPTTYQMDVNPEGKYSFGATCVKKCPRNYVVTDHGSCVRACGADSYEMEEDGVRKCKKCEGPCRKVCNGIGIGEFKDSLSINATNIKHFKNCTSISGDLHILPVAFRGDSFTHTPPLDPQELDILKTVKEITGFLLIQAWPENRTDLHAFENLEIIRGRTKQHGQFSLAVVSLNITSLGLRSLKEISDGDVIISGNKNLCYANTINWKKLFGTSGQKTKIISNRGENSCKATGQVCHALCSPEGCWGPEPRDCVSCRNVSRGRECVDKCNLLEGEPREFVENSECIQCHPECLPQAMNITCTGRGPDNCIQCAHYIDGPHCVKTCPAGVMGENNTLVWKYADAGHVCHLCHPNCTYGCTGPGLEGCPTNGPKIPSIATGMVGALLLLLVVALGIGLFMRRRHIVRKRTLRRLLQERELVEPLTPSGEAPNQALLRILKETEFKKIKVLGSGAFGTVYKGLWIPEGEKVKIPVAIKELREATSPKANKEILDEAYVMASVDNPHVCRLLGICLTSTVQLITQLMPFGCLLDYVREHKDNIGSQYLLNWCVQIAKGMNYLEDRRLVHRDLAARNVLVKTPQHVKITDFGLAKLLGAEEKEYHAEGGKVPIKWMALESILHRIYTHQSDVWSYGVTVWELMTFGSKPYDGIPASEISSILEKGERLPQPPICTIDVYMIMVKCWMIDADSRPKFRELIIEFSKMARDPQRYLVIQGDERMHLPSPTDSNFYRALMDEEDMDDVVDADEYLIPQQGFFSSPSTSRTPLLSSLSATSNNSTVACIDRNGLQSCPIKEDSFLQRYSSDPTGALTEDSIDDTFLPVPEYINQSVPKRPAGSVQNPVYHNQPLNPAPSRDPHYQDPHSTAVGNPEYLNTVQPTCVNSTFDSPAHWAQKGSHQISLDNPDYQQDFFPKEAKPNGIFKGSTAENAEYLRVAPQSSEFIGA
Ba/F3-EGFR-D770_N771insSVD cells, sequence (P00533 with tags, fused parts or gaps DUP768-770): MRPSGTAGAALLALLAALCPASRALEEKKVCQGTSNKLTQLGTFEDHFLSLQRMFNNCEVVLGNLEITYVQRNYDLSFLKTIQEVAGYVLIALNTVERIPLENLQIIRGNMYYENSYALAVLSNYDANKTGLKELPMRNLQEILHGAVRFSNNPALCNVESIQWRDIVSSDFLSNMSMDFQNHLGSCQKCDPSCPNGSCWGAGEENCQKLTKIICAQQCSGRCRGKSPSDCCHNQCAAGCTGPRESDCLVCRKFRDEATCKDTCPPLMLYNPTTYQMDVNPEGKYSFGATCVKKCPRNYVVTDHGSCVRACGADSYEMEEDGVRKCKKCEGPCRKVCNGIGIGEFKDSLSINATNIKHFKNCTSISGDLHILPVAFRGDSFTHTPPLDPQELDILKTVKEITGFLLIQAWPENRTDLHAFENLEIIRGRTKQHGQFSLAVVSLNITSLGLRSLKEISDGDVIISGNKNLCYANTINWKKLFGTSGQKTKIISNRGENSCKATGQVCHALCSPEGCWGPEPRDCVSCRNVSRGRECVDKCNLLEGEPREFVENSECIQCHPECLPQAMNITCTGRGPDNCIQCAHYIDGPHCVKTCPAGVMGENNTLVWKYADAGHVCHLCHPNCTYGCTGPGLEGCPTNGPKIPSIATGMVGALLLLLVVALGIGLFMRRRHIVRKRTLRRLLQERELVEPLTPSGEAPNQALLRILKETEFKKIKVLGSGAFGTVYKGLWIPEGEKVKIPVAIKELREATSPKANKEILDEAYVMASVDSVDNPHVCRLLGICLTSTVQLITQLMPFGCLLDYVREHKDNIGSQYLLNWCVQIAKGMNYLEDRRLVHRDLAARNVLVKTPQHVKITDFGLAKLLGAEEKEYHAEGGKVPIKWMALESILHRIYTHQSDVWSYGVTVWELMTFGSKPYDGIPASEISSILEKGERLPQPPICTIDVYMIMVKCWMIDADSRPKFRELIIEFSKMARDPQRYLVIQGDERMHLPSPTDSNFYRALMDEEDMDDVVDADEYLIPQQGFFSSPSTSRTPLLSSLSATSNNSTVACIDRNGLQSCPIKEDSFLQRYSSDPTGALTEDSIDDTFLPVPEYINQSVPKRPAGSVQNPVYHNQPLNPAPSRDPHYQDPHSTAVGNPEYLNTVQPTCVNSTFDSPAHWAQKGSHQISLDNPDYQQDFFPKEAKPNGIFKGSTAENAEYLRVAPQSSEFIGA
T1 sequence (P00533 other isoform, or with tags, fused parts or gaps DUP768-770): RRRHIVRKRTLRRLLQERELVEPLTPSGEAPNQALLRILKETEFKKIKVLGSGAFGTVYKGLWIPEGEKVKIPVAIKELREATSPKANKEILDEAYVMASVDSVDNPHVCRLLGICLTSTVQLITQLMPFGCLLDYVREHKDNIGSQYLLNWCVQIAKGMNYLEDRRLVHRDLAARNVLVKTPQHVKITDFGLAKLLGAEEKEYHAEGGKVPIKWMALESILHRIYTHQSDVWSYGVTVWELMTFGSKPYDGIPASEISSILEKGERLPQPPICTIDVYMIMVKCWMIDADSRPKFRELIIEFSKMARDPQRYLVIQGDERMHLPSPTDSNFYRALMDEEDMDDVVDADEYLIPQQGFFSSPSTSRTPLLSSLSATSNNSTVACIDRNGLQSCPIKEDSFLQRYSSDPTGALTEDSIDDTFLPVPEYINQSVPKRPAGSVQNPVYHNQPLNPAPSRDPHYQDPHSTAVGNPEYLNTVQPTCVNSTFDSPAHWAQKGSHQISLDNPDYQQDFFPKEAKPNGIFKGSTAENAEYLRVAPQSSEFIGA
T2 sequence (O43683 704-1085): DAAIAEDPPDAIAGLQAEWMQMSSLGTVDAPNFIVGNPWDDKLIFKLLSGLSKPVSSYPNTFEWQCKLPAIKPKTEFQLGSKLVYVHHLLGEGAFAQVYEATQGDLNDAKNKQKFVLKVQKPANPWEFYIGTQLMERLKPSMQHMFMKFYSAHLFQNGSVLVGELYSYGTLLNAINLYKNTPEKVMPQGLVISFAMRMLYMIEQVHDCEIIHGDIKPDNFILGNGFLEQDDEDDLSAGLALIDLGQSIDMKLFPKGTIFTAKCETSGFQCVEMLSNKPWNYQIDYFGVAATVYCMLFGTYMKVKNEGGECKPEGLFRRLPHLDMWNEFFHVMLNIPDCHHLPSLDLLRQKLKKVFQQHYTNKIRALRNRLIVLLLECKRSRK

`COc1c(Cl)cccc1Nc1c(-c2ccncc2OCC2COCCO2)[nH]c2c1C(=O)N[C@H](C)C2` (single isomer, unassigned) [Example 26]: in test [1], the “mutEGFR (D770_N771insSVD) kinase assay IC50” value (from here on “mutEGFR”) stood at 0.242 nM. The molecule further had an IC50 on Bub1 of 3110 nM. For the same molecule, the GI50 in test [2] was determined as 63.1 nM; at Ba/F3-EGFR-WT cells it was 587 nM.

As for `COc1c(Cl)cccc1Nc1c(-c2ccncc2OCC2CCCCO2)[nH]c2c1C(=O)N[C@H](C)C2` (single isomer, unassigned) [Example 28], the “mutEGFR” value in test [1] came out at 0.139 nM. Moreover, inhibition on Bub1 was half-maximal at 9720 nM (IC50). The GI50 worked out at 8.33 nM in test [2] and 189 nM at Ba/F3-EGFR-WT cells.

With `COc1c(Cl)cccc1Nc1c(-c2ccncc2OCC2CCCCO2)[nH]c2c1C(=O)N[C@H](C)C2` (single isomer, unassigned) [Example 29], the “mutEGFR” value in test [1] amounted to 0.176 nM. The molecule further came in with an IC50 against Bub1 of 2390 nM. Further, the GI50 in test [2] came to 11 nM; at Ba/F3-EGFR-WT cells, 288 nM.

Turning to `COc1c(Cl)cccc1Nc1c(-c2ccncc2OC[C@@H]2CCCO2)[nH]c2c1C(=O)NCC2C` (single isomer, unassigned) [Example 31], in test [1], the “mutEGFR” value is 0.119 nM. Also, the IC50 against Bub1 is greater than 20000 nM. Also, the figures for the GI50 (in test [2]; on Ba/F3-EGFR-WT cells) were 125 nM and 2770 nM, respectively.

Consider `COc1c(Cl)cccc1Nc1c(-c2ccncc2OCC2COCCO2)[nH]c2c1C(=O)NCC2C` (single isomer, unassigned) [Example 35, 3-(3-chloro-2-methoxy-anilino)-2-[3-(1,4-dioxan-2-ylmethoxy)-4-pyridyl]-7-methyl-1,5,6,7-tetrahydropyrrolo[3,2-c]pyridin-4-one], for which, in test [1], the “mutEGFR” value is 0.272 nM. The IC50 at Bub1 came out at 12400 nM. The GI50 was 54.1 nM in test [2] and 811 nM at Ba/F3-EGFR-WT cells.

On to `COc1c(Cl)cccc1Nc1c(-c2ccncc2OCC2COCCO2)[nH]c2c1C(=O)NCC2C` (single isomer, unassigned) [Example 36, 3-(3-chloro-2-methoxy-anilino)-2-[3-(1,4-dioxan-2-ylmethoxy)-4-pyridyl]-7-methyl-1,5,6,7-tetrahydropyrrolo[3,2-c]pyridin-4-one], for which the “mutEGFR” value in test [1] is 0.331 nM. On Bub1, this molecule displayed an IC50 of 4900 nM. Further, the GI50 in test [2] was 75.3 nM; on Ba/F3-EGFR-WT cells, 963 nM.

On to `COc1c(Cl)cccc1Nc1c(-c2ccncc2OCC2COCCO2)[nH]c2c1C(=O)NCC2C` (single isomer, unassigned) [Example 37, 3-(3-chloro-2-methoxy-anilino)-2-[3-(1,4-dioxan-2-ylmethoxy)-4-pyridyl]-7-methyl-1,5,6,7-tetrahydropyrrolo[3,2-c]pyridin-4-one], for which the “mutEGFR” value in test [1] stood at 0.318 nM. Also, 2870 nM corresponded to half-maximal inhibition on Bub1 (IC50). In addition, the GI50 came to 149 nM in test [2] and 1090 nM on Ba/F3-EGFR-WT cells.

For the molecule `COc1c(Cl)cccc1Nc1c(-c2ccncc2OC[C@@H]2CCCO2)[nH]c2c1C(=O)NC(C(F)(F)F)C2` (single isomer, unassigned) [Example 39], the “mutEGFR” value in test [1] worked out at 18.8 nM. Also, the concentration for half-maximal inhibition (IC50) against Bub1 was greater than 20000 nM. For the same molecule, the GI50 was 786 nM and > 1000 nM in test [2]; 4120 nM on Ba/F3-EGFR-WT cells.

For the molecule `COc1c(Cl)cccc1Nc1c(-c2ccncc2OC[C@@H]2CCCO2)[nH]c2c1C(=O)NC(C(F)(F)F)C2` (single isomer, unassigned) [Example 40], the “mutEGFR” value in test [1] is 0.0981 nM and <0.0725 nM. This molecule also had an IC50 at Bub1 of 399 nM. The GI50 was 64.3 nM in test [2] and 480 nM at Ba/F3-EGFR-WT cells.

For the molecule `COCC(C)Oc1cnccc1-c1[nH]c2c(c1Nc1cccc(Cl)c1OC)C(=O)N[C@H](C)C2` (single isomer, unassigned) [Example 42], the “mutEGFR” value in test [1] stood at 0.213 nM. For the same molecule, the IC50 against Bub1 was determined as 8810 nM. Moreover, the results for the GI50 (in test [2]; on Ba/F3-EGFR-WT cells) were 15.3 nM and 531 nM, respectively.

On to `COCC(C)Oc1cnccc1-c1[nH]c2c(c1Nc1cccc(Cl)c1OC)C(=O)N[C@H](C)C2` (single isomer, unassigned) [Example 43], for which the “mutEGFR” value in test [1] was 0.418 nM. Moreover, the IC50 against Bub1 is greater than 20000 nM. Moreover, the GI50 stood at 219 nM in test [2] and 1860 nM on Ba/F3-EGFR-WT cells.

Regarding `COc1c(Cl)cccc1Nc1c(-c2ccncc2OCC2CCCCO2)[nH]c2c1C(=O)NCC2C` (single isomer, unassigned) [Example 45, 3-(3-chloro-2-methoxy-anilino)-7-methyl-2-[3-(tetrahydropyran-2-ylmethoxy)-4-pyridyl]-1,5,6,7-tetrahydropyrrolo[3,2-c]pyridin-4-one], the “mutEGFR” value in test [1] came to 0.391 nM. For the same molecule, on Bub1, the IC50 is greater than 20000 nM. The GI50 in test [2] is 47.3 nM; at Ba/F3-EGFR-WT cells, 840 nM.

In the case of `COc1c(Cl)cccc1Nc1c(-c2ccncc2OCC2CCCCO2)[nH]c2c1C(=O)NCC2C` (single isomer, unassigned) [Example 46, 3-(3-chloro-2-methoxy-anilino)-7-methyl-2-[3-(tetrahydropyran-2-ylmethoxy)-4-pyridyl]-1,5,6,7-tetrahydropyrrolo[3,2-c]pyridin-4-one], the “mutEGFR” value in test [1] is 1.17 nM. This molecule returned an IC50 at Bub1 greater than 20000 nM. For the same molecule, the GI50 in test [2] was 125 nM; on Ba/F3-EGFR-WT cells, 2750 nM.

`COc1c(Cl)cccc1Nc1c(-c2ccncc2OCC2CCCCO2)[nH]c2c1C(=O)NCC2C` (single isomer, unassigned) [Example 47, 3-(3-chloro-2-methoxy-anilino)-7-methyl-2-[3-(tetrahydropyran-2-ylmethoxy)-4-pyridyl]-1,5,6,7-tetrahydropyrrolo[3,2-c]pyridin-4-one]: the “mutEGFR” value in test [1] is 0.667 nM. The same molecule returned an IC50 on Bub1 of 7600 nM. Besides, the GI50 was found to be 106 nM in test [2] and 1990 nM on Ba/F3-EGFR-WT cells.

Take `COc1c(Cl)cccc1Nc1c(-c2ccncc2OCC2CCCCO2)[nH]c2c1C(=O)NCC2C` (single isomer, unassigned) [Example 48, 3-(3-chloro-2-methoxy-anilino)-7-methyl-2-[3-(tetrahydropyran-2-ylmethoxy)-4-pyridyl]-1,5,6,7-tetrahydropyrrolo[3,2-c]pyridin-4-one]: the “mutEGFR” value in test [1] is 0.227 nM. The same molecule displayed an IC50 against Bub1 of 9130 nM. Besides, the results for the GI50 (in test [2]; at Ba/F3-EGFR-WT cells) were 25.7 nM and 611 nM, respectively.

With `COCC(C)Oc1cnccc1-c1[nH]c2c(c1Nc1cccc(Cl)c1OC)C(=O)N[C@@H]1CCC[C@H]21` (single isomer, unassigned) [Example 50], the “mutEGFR” value in test [1] came to 0.393 nM. The molecule also registered an IC50 against Bub1 greater than 20000 nM. In addition, the GI50 came out at 349 nM in test [2] and 1650 nM on Ba/F3-EGFR-WT cells.

On to `COc1c(Cl)cccc1Nc1c(-c2ccncc2OCC2COCCO2)[nH]c2c1C(=O)N[C@@H]1CCC[C@H]21` (single isomer, unassigned) [Example 53], for which the “mutEGFR” value in test [1] was 0.282 nM. The molecule further registered an IC50 at Bub1 of 14500 nM. The GI50 is 34.9 nM in test [2] and 712 nM on Ba/F3-EGFR-WT cells.

With `COc1c(Cl)cccc1Nc1c(-c2ccncc2OCC2COCCO2)[nH]c2c1C(=O)N[C@@H]1CCC[C@H]21` (single isomer, unassigned) [Example 54], the “mutEGFR” value in test [1] is 0.198 nM. This molecule came in with an IC50 against Bub1 of 6190 nM. The figures for the GI50 (in test [2]; at Ba/F3-EGFR-WT cells) were 42.4 nM and 675 nM, respectively.

Take `Cc1c(Cl)cccc1Nc1c(-c2ccncc2OC[C@@H]2CCCO2)[nH]c2c1C(=O)NCC2C` (single isomer, unassigned) [Example 59]: in test [1], the “mutEGFR” value stood at 0.285 nM. This molecule yielded an IC50 at Bub1 of 16400 nM. Besides, the results for the GI50 (in test [2]; on Ba/F3-EGFR-WT cells) were 41.9 nM and 609 nM, respectively.
